Source: patent US9468648B2, “Treatment including prebiotic composition for use with probiotics” (MASTER SUPPLEMENTS, INC., priority 2010, dated 2016)

Tests used:
Type in all cases: cell-based
[1] = system: Lactobacillus acidophilus NCFM (LA-1); assay: Growth (turbidity) and lactic acid producing activity in MRS broth, L. acidophilus NCFM; details: for pH: 0.1% in MRS (Polysorbate 80: 1.0 g/l)
Protocol: (§1) At specified time intervals, a 30 ml sample from each flask was aseptically transferred into a HACH […] Turbidimeter sample cell. The turbidity of each sample was read and the results were reported in NTU's. The same 30 ml sample used for the turbidity reading was transferred into a 250 ml glass beaker, and the pH was recorded. The sample was titrated using 0.1 N NaOH to an endpoint of pH 6.8, and the quantity of NaOH used was recorded. The % Lactic Acid was calculated using the following formula: % Lactic Acid=((mls of 0.1N NaOH)×(0.1N)×(90 gm/mole)×(1 L/1000 ml))×100 mls of sample % Lactic Acid=(mls of 0.1N NaOH)×(0.9) (Results reported at 12 hours and 23 hours like: 12/23 in Table I below)

[2] = system: Lactobacillus paracasei Lpc-37 (F-19); assay: Growth (turbidity) and lactic acid producing activity in MRS broth, L. paracasei Lpc-37
Protocol: as §1, with “Each flask was tempered to 37° C. and aseptically inoculated with 0.14 gm of the individual probiotic strains (in Examples 5 to 10 below) to be tested. At” for “At”, “III” for “I”

[3] = system: Lactobacillus rhamnosus-Lr-32 (LR-44); assay: Growth (turbidity) and lactic acid producing activity in MRS broth, L. rhamnosus Lr-32; details: for pH: 0.1% in MRS (Polysorbate 80: 1.0 g/l)
Protocol: as §1, with “Each flask was tempered to 37° C. and aseptically inoculated with 0.14 gm of the individual probiotic strains (in Examples 5 to 10 below) to be tested. At” for “At”, “IV” for “I”

[4] = system: Lactobacillus salivarius-Ls-33 (LS-30); assay: Growth (turbidity) and lactic acid producing activity in MRS broth, L. salivarius Ls-33; details: for pH: 0.1% in MRS (Polysorbate 80: 1.0 g/l)
Protocol: as §1, with “Each flask was tempered to 37° C. and aseptically inoculated with 0.14 gm of the individual probiotic strains (in Examples 5 to 10 below) to be tested. At” for “At”, “V” for “I”

[5] = system: THERALAC® Lot #32310A probiotic strains; assay: Growth of the commercial probiotic […] in MRS broth; details: for pH: 0.1% in MRS (Polysorbate 80: 1.0 g/l)
Protocol: MRS broth was prepared with (for controls) and without (for tests) polysorbate 80 and filled into 1 liter screw cap flasks at 500 ml each and autoclaved at 121° C. for 30 minutes. Various lecithin and/or oleic acid additives, or nothing (negative control), was added to the tests flasks prior to autoclaving. The flasks were then tempered to 37° C. in a water bath and inoculated at 0.1% with […]® Lot #32310A, a commercial probiotic product (Master Supplements, Inc., Victoria, Minn.). Capsules of […]® were opened and the contents mixed aseptically to serve as the inoculum source. At an inoculation rate of 0.1%, approximately 80 million CFU was added per ml of MRS media. […]® contains (formulation strength) the following probiotic strains at the approximate CFU values listed per gram: Turbidity, pH and titrations (made with 0.1 N NaOH and reported as % lactic acid) were made at various times up to 23 hours. The results are presented below in Table VI for the 12 and 23-hour analyses.

[6] = system: Bifidobacterium lactis Bl-04 (BL-34); assay: Growth (turbidity) and lactic acid producing activity in MRS broth, B. lactis Bl-04; details: 0.1% in MRS (Polysorbate 80: 1.0 g/l)
Protocol: as §1, with “Each flask was tempered to 37° C. and aseptically inoculated with 0.14 gm of the individual probiotic strains (in Examples 5 to 10 below) to be tested. At” for “At”, “II” for “I”

[7] = 0.1% in MRS (Polysorbate 80: 1.0 g/l), 12 hours

CCCCCCCC/C=C\CCCCCCCC(=O)O [Oleic Acid, oleic acid]
effectiveness as polysorbate 80 replacement (growth and activity) ([1]; 0.1% inclusion rate): somewhat effective as a polysorbate 80 replacement | effectiveness as polysorbate 80 replacement (growth and activity) ([2]; 0.1% inclusion rate): not as effective a replacement for polysorbate 80 as sunflower lecithin | effectiveness as polysorbate 80 replacement (growth and activity) ([3]; 0.1% inclusion rate): not as good a replacement for polysorbate 80 as sunflower lecithin | effectiveness as polysorbate 80 replacement (growth and activity) ([4]; 0.1% inclusion rate): not as good a replacement | effectiveness as polysorbate 80 replacement (growth and activity) ([5]; 0.1% inclusion rate): acceptable replacement value for polysorbate 80

polysorbate 80
pH ([1]; 12 hours): 4.2 | pH ([1]; 23 hours): 4.1 | Lactic Acid % ([6]; 12 hours): 0.57% | pH ([6]; 12 hours): 4.8 | Lactic Acid % ([6]; 23 hours): 0.84% | pH ([6]; 23 hours): 4.5 | Lactic Acid % [2, 7]: 0.99% | pH [2, 7]: 4.2 | pH ([2]; 0.1% in MRS (Polysorbate 80: 1.0 g/l), 23 hours): 3.9 | pH ([3]; 12 hours): 4.0 | pH ([3]; 23 hours): 3.7 | pH ([4]; 12 hours): 3.8 | pH ([4]; 23 hours): 3.7 | pH ([5]; 12 hours): 3.9 | pH ([5]; 23 hours): 3.7
